Reference: article PMC10288926 (Journal of Enzyme Inhibition and Medicinal Chemistry, 2023)
Where two headings read alike, the source gives them in different places.

Key:
ROS1 = ROS1 (Homo sapiens, UniProt P08922); test: HTRF KinEASE-TK kinase inhibitory assay, ROS1; assay type: biochemical; conditions: for inhibition at 1 µM: read-out: ROS1 Inhibition (1μM); for ROS1 Inhibition (1μM): kinase inhibition % at 1 μM
ALK^WT = ALK^WT (Homo sapiens, UniProt Q9UM73); test: HTRF KinEASE-TK kinase inhibitory assay, ALK wild type; assay type: biochemical; conditions: for ALK Inhibition (1μM): kinase inhibition % at 1 μM
c-MET = c-MET (Homo sapiens, UniProt P08581); test: HTRF kinase inhibitory assay, c-MET; assay type: biochemical; conditions: for c-MET Inhibition (1μM): kinase inhibition % at 1 μM
[1] = test system: HCC-78 cell line harbouring SLC34A2-ROS1 fusion; test: Antiproliferative MTT assay, HCC-78; assay type: cell-based, human; conditions: read-out: Cellular IC50 (μM) HCC-78
[2] = test system: NCI-H3122 cell line harbouring EML4-ALK fusion; test: Antiproliferative MTT assay, NCI-H3122; assay type: cell-based, human; conditions: read-out: Cellular IC50 (μM) NCI-H3122
Ba/F3 CD74-ROS1^WT cell = Ba/F3 CD74-ROS1^WT cell (Homo sapiens, UniProt P04233+P08922); test: Antiproliferative CCK-8 assay, Ba/F3 CD74-ROS1^WT; assay type: cell-based; conditions: 72 h exposure, IC50, at least three independent experiments; for IC50: read-out: Ba/F3 cellular activities (nM) CD74-ROS1^WT
[3] = biological target: Ba/F3 CD74-ROS1^L2026M cell (Homo sapiens, UniProt P04233+P08922, L2026M); test: Antiproliferative CCK-8 assay, Ba/F3 CD74-ROS1^L2026M; assay type: cell-based; conditions: read-out: Ba/F3 cellular activities (nM) CD74-ROS1^L2026M; 72 h exposure, IC50, at least three independent experiments
[4] = biological target: Ba/F3 CD74-ROS1^G2032R cell (Homo sapiens, UniProt P04233+P08922, G2032R); test: Antiproliferative CCK-8 assay, Ba/F3 CD74-ROS1^G2032R; assay type: cell-based; conditions: for IC50: read-out: Ba/F3 cellular activities (nM) CD74-ROS1^G2032R, 72 h exposure, IC50, at least three independent experiments
Ba/F3 EML4-ALK^WT cell = Ba/F3 EML4-ALK^WT cell (Homo sapiens, UniProt Q9HC35+Q9UM73); assay type: cell-based; conditions: read-out: Ba/F3 cellular activities (nM) EML4-ALK^WT; 72 h exposure, IC50, at least three independent experiments
[5] = biological target: Ba/F3 EML4-ALK^L1196M cell (Homo sapiens, UniProt Q9HC35+Q9UM73, L1196M); assay type: cell-based; conditions: read-out: Ba/F3 cellular activities (nM) EML4-ALK^L1196M; 72 h exposure, IC50, at least three independent experiments
ALK^L1196M = ALK^L1196M (Homo sapiens, UniProt Q9UM73, L1196M); test: HTRF KinEASE-TK kinase inhibitory assay, ALK^L1196M; assay type: biochemical
ALK^G1202R = ALK^G1202R (Homo sapiens, UniProt Q9UM73, G1202R); test: HTRF KinEASE-TK kinase inhibitory assay, ALK^G1202R; assay type: biochemical
[6] = test system: phosphorylation of ROS1 and ERK in CD74-ROS1^WT cell; test: Western blot of ROS1 and ERK phosphorylation, CD74-ROS1^WT Ba/F3 cells; assay type: cell-based
[7] = test system: phosphorylation of ROS1 and ERK in CD74-ROS1^L2026M cell; test: Western blot of ROS1 and ERK phosphorylation, CD74-ROS1^L2026M Ba/F3 cells; assay type: cell-based
ROS1-G2032R = conditions: read-out: cellular IC50 ROS1-G2032R; cited from earlier work
ALK = conditions: read-out: enzymatic IC50 against ALK; cited from earlier work
[8] = test system: ROS1 phosphorylation in CD74-ROS1^G2032R cell; test: Western blot of ROS1 phosphorylation, CD74-ROS1^G2032R Ba/F3 cells; assay type: cell-based; conditions: up to 1000 nM
[9] = test system: phosphorylation of ALK in EML4-ALK^L1196M cell; test: Western blot of phosphorylation, EML4-ALK^L1196M Ba/F3 cells; assay type: cell-based
HCC-78 cells = test: Apoptosis assay; assay type: cell-based, human
NCI-H3122 cells = test: Apoptosis assay; assay type: cell-based, human; conditions: 48 h, vehicle 11.24%
[10] = read-out: ROS1 IC50, average of two independent experiments
[11] = average of two independent experiments
[12] = MTT, 72 h, mean of at least three independent experiments
[13] = read-out: Enzymatic activities (nM) ALK^L1196M, IC50, average of two independent experiments
[14] = read-out: Enzymatic activities (nM) ALK^G1202R, IC50, average of two independent experiments

Q: What does the source list for `C[C@@H](Oc1cc(-c2cnn(C)c2)cnc1N)c1ccccc1-c1ccccc1` [B08, (R)-3–(1-([1,1'-biphenyl]-2-yl)ethoxy)-5–(1-methyl-1H-pyrazol-4-yl)pyridin-2-amine]?
A: IC50 (ROS1): 37.4 nM; fold more potent than compound B03, ROS1 IC50 (ROS1): about 10 fold; inhibition at 1 µM (ROS1): 103%; IC50 (ALK^WT): 67.4 nM; fold more potent than compound B03, ALK IC50 (ALK^WT): ~4 fold; inhibition at 1 µM (ALK^WT; read-out: ALK Inhibition (1μM)): 100%; inhibition at 1 µM (c-MET; read-out: c-MET Inhibition (1μM)): 64%; IC50 ([1]; Homo sapiens, HCC78, 72 h): 4.6 ± 0.8 µM; IC50 ([2]; Homo sapiens, NCI-H3122, 72 h): 5.7 ± 0.6 µM; IC50 (Ba/F3 CD74-ROS1^WT cell): 20.9 ± 1.7 nM; IC50 [3]: 168 ± 56.3 nM; IC50 [4]: 317 ± 92.1 nM; IC50 (Ba/F3 EML4-ALK^WT cell): 681 ± 151 nM; IC50 [5]: 1810 ± 270 nM; IC50 (ALK^L1196M): > 1000 nM; IC50 (ALK^G1202R): 195 nM

Q: What does the source list for `C[C@@H](Oc1cc(-c2cnn(C3CCNCC3)c2)cnc1N)c1c(Cl)ccc(F)c1Cl` [Crizotinib, reference compound]?
A: inhibition at 1 µM (ROS1): 101%; IC50 ([1]; Homo sapiens, HCC78, 72 h): 4.5 ± 1.4 µM; phosphorylation of ROS1 and ERK, CD74-ROS1^WT cell [6]: attenuated phosphorylation of ROS1 and its key downstream molecule ERK in a dose-dependent manner; phosphorylation of ROS1 and ERK, CD74-ROS1^L2026M cell [7]: attenuated phosphorylation of ROS1 and its key downstream molecule ERK in a dose-dependent manner

Q: For `C[C@H]1Oc2cc(cnc2N)-c2c(nn(C)c2C#N)CN(C)C(=O)c2ccc(F)cc21` [Lorlatinib], which IC50 (ROS1-G2032R) is on record?
A: 203 nM

Q: With `C[C@@H](Oc1cc(-c2ccc3c(c2)NC(=O)C32CCN(C)CC2)cnc1N)c1c(Cl)ccc(F)c1Cl` [SMU-B, reference compound] as the compound, how does the IC50 (ROS1; [10]) read?
A: 1.48 nM

Q: What about the IC50 (ALK) of the same compound?
A: < 0.5 nM

Q: With “(R)-5–(5-(1-([1,1'-biphenyl]-2-yl)ethoxy)-6-aminopyridin-3-yl)-1'-methylspiro[indoline-3,4'-piperidin]-2-one [C01]” as the compound, how does the “ROS1 Inhibition (1μM)” value (ROS1; [11]) read?
A: 100%

Q: And the IC50 (ROS1; [10])?
A: 4.7 nM

Q: And the “ALK Inhibition (1μM)” value (ALK^WT)?
A: 101%

Q: And the IC50 (ALK^WT; read-out: ALK IC50)?
A: 25.6 nM

Q: And the “c-MET Inhibition (1μM)” value (c-MET)?
A: 70%

Q: And the IC50 [1, 12]?
A: 3.9 ± 0.5 µM

Q: What about the IC50 [2, 12] of the same compound?
A: 3 ± 0.1 µM

Q: And the “Ba/F3 cellular activities (nM) CD74-ROS1^WT” value (Ba/F3 CD74-ROS1^WT cell)?
A: comparable to Crizotinib

Q: What about the IC50 (Ba/F3 CD74-ROS1^WT cell) of the same compound?
A: 7.6 ± 0.6 nM

Q: And the IC50 [3]?
A: 33.1 ± 1.4 nM

Q: What about the “fold more potent than Crizotinib, CD74-ROS1^G2032R cell” value ([4]; ratio of cellular IC50 to Crizotinib) of the same compound?
A: about 30 fold

Q: And the IC50 [4]?
A: 42.3 nM

Q: What about the IC50 (Ba/F3 EML4-ALK^WT cell) of the same compound?
A: 145 ± 36 nM

Q: What about the IC50 [5] of the same compound?
A: 120 ± 17.3 nM

Q: What about the IC50 (ALK^L1196M; [13]) of the same compound?
A: 404 nM

Q: And the “fold potency superior to Crizotinib, ALK^G1202R enzyme” value (ALK^G1202R; ratio of enzymatic IC50 to Crizotinib)?
A: 10 fold

Q: What about the IC50 (ALK^G1202R; [14]) of the same compound?
A: 49.1 nM

Q: What about the “phosphorylation of ROS1 and ERK, CD74-ROS1^WT cell” value [6] of the same compound?
A: attenuated phosphorylation of ROS1 and its key downstream molecule ERK in a dose-dependent manner

Q: What about the “phosphorylation of ROS1 and ERK, CD74-ROS1^L2026M cell” value [7] of the same compound?
A: attenuated phosphorylation of ROS1 and its key downstream molecule ERK in a dose-dependent manner

Q: And the “ROS1 phosphorylation, CD74-ROS1^G2032R cell” value [8]?
A: significant inhibition of ROS1 phosphorylation occurred in a dose-dependent manner

Q: And the “phosphorylation, EML4-ALK^L1196M cell” value [9]?
A: persistent potency

Q: What about the “percentage of apoptotic HCC-78 cell” value (HCC-78 cells; 2.0 μM (IC50/2), 48 h, vehicle 10.7%) of the same compound?
A: 15.9%

Q: What about the “percentage of apoptotic HCC-78 cell” value (HCC-78 cells; 7.8 μM (2 IC50), 48 h, vehicle 10.7%) of the same compound?
A: 31.7%

Q: And the “percentage of apoptotic HCC-78 cell” value (HCC-78 cells; C01 3.9 μM (1 IC50) vs Crizotinib 4.5 μM (1 IC50))?
A: superior to that of Crizotinib treatment group

Q: And the “percentage of apoptotic NCI-H3122 cell” value (NCI-H3122 cells; 1.5 μM (IC50/2))?
A: 15.61%

Q: What about the “percentage of apoptotic NCI-H3122 cell” value (NCI-H3122 cells; 3.0 μM (1 IC50)) of the same compound?
A: 29.47%

Q: And the “percentage of apoptotic NCI-H3122 cell” value (NCI-H3122 cells; 6.0 μM (2 IC50))?
A: 35.13%

Q: For “(R)-5–(6-amino-5–(1-(4'-fluoro-[1,1'-biphenyl]-2-yl)ethoxy)pyridin-3-yl)-1'-methylspiro[indoline-3,4'-piperidin]-2-one [C02]”, which “ROS1 Inhibition (1μM)” value (ROS1; average of two independent experiments, 1 µM) is on record?
A: 102%

Q: What about the IC50 (ROS1; [10]) of the same compound?
A: 4.6 nM

Q: And the “ALK Inhibition (1μM)” value (ALK^WT; 1 µM)?
A: 98%

Q: And the IC50 (ALK^WT; read-out: ALK IC50)?
A: 30.1 nM

Q: What about the “c-MET Inhibition (1μM)” value (c-MET; 1 µM) of the same compound?
A: 69%

Q: And the IC50 [1, 12]?
A: 4.4 ± 0.5 µM

Q: And the IC50 [2, 12]?
A: 2.8 ± 0.9 µM

Q: What about the “Ba/F3 cellular activities (nM) CD74-ROS1^WT” value (Ba/F3 CD74-ROS1^WT cell) of the same compound?
A: comparable to Crizotinib

Q: What about the IC50 (Ba/F3 CD74-ROS1^WT cell) of the same compound?
A: 5.4 ± 1 nM

Q: What about the IC50 [3] of the same compound?
A: 21.3 ± 4.7 nM

Q: What about the IC50 [4] of the same compound?
A: 107 ± 12.6 nM

Q: And the IC50 (Ba/F3 EML4-ALK^WT cell)?
A: 191 ± 51.8 nM

Q: And the IC50 [5]?
A: 148 ± 27.3 nM

Q: What about the IC50 (ALK^L1196M; [13]) of the same compound?
A: 643 nM

Q: And the IC50 (ALK^G1202R; [14])?
A: 276 nM

Q: Which results are given for “(R)-5–(6-amino-5–(1-(4'-methoxy-[1,1'-biphenyl]-2-yl)ethoxy)pyridin-3-yl)-1'-methylspiro[indoline-3,4'-piperidin]-2-one [C03]”?
A: ROS1 Inhibition (1μM) (ROS1; [11]): 101%; IC50 (ROS1; [10]): 11.6 nM; ALK Inhibition (1μM) (ALK^WT): 94%; IC50 (ALK^WT; read-out: ALK IC50): 56.1 nM; c-MET Inhibition (1μM) (c-MET): 63%; IC50 [1, 12]: 4.6 ± 0.23 µM; IC50 [2, 12]: 1.9 ± 0.1 µM; IC50 (Ba/F3 CD74-ROS1^WT cell): 18.3 ± 1.2 nM; IC50 [3]: 38.3 ± 5.9 nM; IC50 [4]: 94.4 ± 31.9 nM; IC50 (Ba/F3 EML4-ALK^WT cell): 228 ± 47.3 nM; IC50 [5]: 185 ± 22.2 nM; IC50 (ALK^G1202R; [14]): 492 nM
